Laboratory results from ChEMBL document CHEMBL4265966 (Bioorg Med Chem Lett, 2018).
Active and inactive are the calls of the source. The calls are words filed in the database; no cut-off is given here.

What was measured:
[1] = molecular target: T1, Sodium-dependent serotonin transporter (Homo sapiens, UniProt P31645); assay: biochemical; assay type: cell-based, HEK293
Target sequence in this assay (P31645 whole entry): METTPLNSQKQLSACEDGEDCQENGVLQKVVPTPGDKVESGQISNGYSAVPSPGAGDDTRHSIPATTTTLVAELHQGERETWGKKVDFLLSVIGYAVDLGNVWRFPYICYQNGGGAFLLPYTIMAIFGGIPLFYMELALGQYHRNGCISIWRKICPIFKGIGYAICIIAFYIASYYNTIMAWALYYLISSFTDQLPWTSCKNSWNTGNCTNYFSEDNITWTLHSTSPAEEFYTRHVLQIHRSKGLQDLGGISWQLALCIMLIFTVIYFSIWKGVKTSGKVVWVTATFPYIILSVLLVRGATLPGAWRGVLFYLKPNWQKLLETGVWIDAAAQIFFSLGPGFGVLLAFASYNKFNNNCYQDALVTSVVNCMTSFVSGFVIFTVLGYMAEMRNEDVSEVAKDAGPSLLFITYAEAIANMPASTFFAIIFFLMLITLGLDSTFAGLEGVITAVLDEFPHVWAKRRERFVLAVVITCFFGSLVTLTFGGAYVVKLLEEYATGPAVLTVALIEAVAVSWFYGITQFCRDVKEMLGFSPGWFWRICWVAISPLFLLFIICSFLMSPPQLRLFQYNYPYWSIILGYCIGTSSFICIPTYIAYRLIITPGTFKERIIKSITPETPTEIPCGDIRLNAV
Description: Displacement of [125I]-RTI-55 from human SERT expressed in HEK293 cell membranes after 1 hr by gamma counting method

[2] = molecular target: T1, Sodium-dependent serotonin transporter; assay: Binding affinity to human SERT expressed in HEK293 cells at 1 uM preincubated for 1 hr followed by UV light irradiation for 20 mins by IRDye 800 CW azide based tandem photoaffinity labeling-biorthogonal conjugation assay; assay type: cell-based
Target sequence in this assay (P31645 whole entry, looked up): as the sequence (P31645 whole entry) above

[3] = molecular target: T1, Sodium-dependent serotonin transporter; assay: Potency index, ratio of (S)-citalopram Ki to compound Ki for displacement of [125I]-RTI-55 from human SERT expressed in HEK293 cell membranes
Target sequence in this assay (P31645 whole entry, looked up): as the sequence (P31645 whole entry) above

[4] = molecular target: T1, Sodium-dependent serotonin transporter; assay: Binding affinity to human SERT expressed in HEK293 cells at 1 uM preincubated for 1 hr followed by UV light irradiation for 20 mins in presence of (S)-citalopram by IRDye 800 CW azide based tandem photoaffinity labeling-biorthogonal conjugation assay; assay type: cell-based
Target sequence in this assay (P31645 whole entry, looked up): as the sequence (P31645 whole entry) above

[5] = molecular target: T1, Sodium-dependent serotonin transporter; assay: Binding affinity to human SERT expressed in HEK293 cells at 1 uM after 1 hr by IRDye 800 CW azide based tandem photoaffinity labeling-biorthogonal conjugation assay; assay type: cell-based
Target sequence in this assay (P31645 whole entry, looked up): as the sequence (P31645 whole entry) above

| Ki [1] | Activity [2] | Ratio Ki [3] | Activity [4] | Activity [5] | SMILES |
| --- | --- | --- | --- | --- | --- |
| 0.00016 µM | Active | 11 | inactive | inactive | C#CCOc1ccc(C(=O)c2ccc(C(=O)NCc3ccc4c(c3)CO[C@@]4(CCCN(C)C)c3ccc(F)cc3)cc2)cc1 |
| 0.487 µM |  |  |  |  | C#CCOc1ccc(C(=O)c2ccc(CN(C)CCC[C@@]3(c4ccc(F)cc4)OCc4cc(C#N)ccc43)cc2)cc1 |

| SMILES | Ki [1] | Activity [2] | Ratio Ki [3] | Activity [4] | Activity [5] |
| --- | --- | --- | --- | --- | --- |
| CN(C)CCC[C@@]1(c2ccc(F)cc2)OCc2cc(CNC(=O)c3cc(CN=[N+]=[N-])cc(N=[N+]=[N-])c3)ccc21 | 0.0107 µM |  |  |  |  |
